In one data set the test system is HIV-1. The data set is described as follows: Anti-viral activity: syncytium formation (Sup T1) or reverse transcriptase assay (H9). The format is cell-based. To be noted: Human immunodeficiency virus 1, SUP-T1. As to the method: The anti-viral activity of the compounds of the present invention was determined by measuring the concentration of the compounds that inhibits the proliferation of HIV by 50%(IC50) through a survey for syncytium formation or reverse transcriptase assay.
1×10^5 cells of each of H9(ATCC HTB 176) and Sup T1 cell lines were added to the wells of a 24-well microtiter plate and various concentrations so the compounds of the present invention were added thereto. 200 TCID50 (200-fold of 50% tissue culture infection dose) of HIV-1 inoculum and rpmi-1640 medium(Sigma Chemical Co., U.S.A) were added successively to the wells and the plate was incubated at 37° C. In case of Sup T1, the number of syncytium formed was investigated after 3 to 9 days. IC50 of each compound was determined by measuring the concentration of inhibitor that can reduce the number of syncytium by 50% compared with those formed in the same condition without the inhibitor.
In case of H9, three-quarters(3/4) of the culture medium in volume was refreshed every 3 days; and 6 ml of the culture fluid was centrifuged at 1000 rpm for 10 minutes. To 5 ml of the resulting supernatant were added 2.5 ml of 30% polyethyleneglycol(PEG, M.W. 6000-8000) and 0.4M NaCl. The resulting solution was allowed to stand at 0° C. overnight to precipitate virus particles. The solution was centrifuged at 2000 rpm for 45 minutes, the supernatant was discarded therefrom and the precipitate was diluted with 20 μl of a reverse transcriptase suspension buffer(50 mM tris-HCl, pH 7.5, 1 mM dithiothreitol, 20% glycerol, 0.25M KCl and 0.25% Triton X-100). The resulting suspension was stored in an Effendorf tube at -70° C. until used. A procedure of freezing said virus suspension for 2 minutes in dry ice and thawing same at 37° C. for 2 minutes was repeated three times and the resulting suspension was centrifuged at 4° C. The resulting supernatant was used in carrying out the reverse transcriptase assay.
10 μl of the said viral suspension was added to a solution of: 10 μl of buffer solution(250 mM tris-HCl, pH 7.5, 37.5 mM MgCl2, 0.25% triton X-100), 1.2 μl of 200 mM dithiothreitol, 5 μl of 10 μM oligo(dT)-poly(A)(Boeringer Manheim, 12-18 oligomer), 1 μl(1 μCi) of ^3 H-TTP(Thymidinetri-phosphate) and 23.6 μl of water; and the resulting mixture was placed at 37° C. After 1 hour, the mixture was poured onto a WHATMAN DEB1 filter and the filter was washed three times with 5 ml of 2×SSC buffer solution(17.53 g of sodium chloride, 8.82 g of sodium citrate, pH 7.0, 1 liter of water) for about 10 minutes each time and twice with 95% ethanol for 10 seconds. The filter was put onto aluminium foil and dried with an infra-red lamp. The amount of radioactivity was counted using a liquid scintillation counter. IC50 of each compound was determined by measuring the concentration of inhibitor that can reduce the activity of reverse transcriptase by 50%.

A short description of data set [1]: Cytotoxicity in H9 or Sup T1 cells (trypan blue dye exclusion). The data set is classed as cell-based. To be noted: human. As to the method: To determine the cytotoxicity of the compounds of the present invention, 0.1 μM to 100 μM of the novel compounds were added to H9 cell or Sup T1 cell and the mixture was cultured on a rpmi-1640 medium at 37° C. The medium was refreshed every 3 days and the extent of cell proliferation was observed using Hemacytometer according to the trypan blue dye exclusion technique which is well known in the art. CT50 (i.e., concentration that causes death of cells by 50%) was determined. For reference, AZT(Burrows-Wellcome), A-75925 (Abbott, C2 symmetric compound) and Ro-31-8959(F. Hofmann-La Roche) were used as control compounds.

A further data set has as its target T1, HIV-1 protease (Human immunodeficiency virus type 1 group M subtype B, UniProt P04585).
T1 construct: 2.6 nM of HIV-1 protease
The data set is described as follows: Assay for inhibitory effect on HIV protease (residual enzyme activity, HPLC of substrate cleavage). The format is biochemical. The conditions noted are these: for Ki / kinact: HIV-1 protease 2.6 nM; for Ki / kinact / kinact/KI: pH 5.5; for Ki: inhibition constant; for kinact: rate constant of covalent bond formation, read-out: kina (converted); for kinact/KI: second order rate constant, HIV-1 protease, read-out: kina /KI (converted). On the procedure:
The inhibitory effect on HIV protease of the compounds of the present invention was determined by the following method.
To a buffer solution comprising 50 mM sodium acetate, pH 5.5, 1 mM dithiothreitol(DTT), 1 mM ethylenediaminetetraacetate (EDTA), 0.75M ammonium sulfate, 0.2M sodium chloride and 0.1% NP40(NONIDET P-40; Sigma Chemical Co., U.S.A.), were added various concentrations of a compound selected from Compound Nos. 1 to 92 to prepare a preincubation solution. Inhibition reaction was started with the addition of 2.6 nM of HIV-1 protease to the preincubation solution. Each 10 μl of the reaction solution was taken at a given time interval and added to 80 μl of assay solution containing 100 μM of reaction substrate in the same buffer solution as above to assay for the residual enzyme activity. In this context, an oligopeptide(KM =20 μM) consisting of 11 amino acids, i.e., Ser-Ile-Ala-Glu-(p-NO2)-Phe-Leu-Val-Arg-Ala-Lys-His, was used as a reaction substrate, which oligopeptide was to be cleaved in two by the breakage of amide bond between (P--NO2)-Phe and Leu upon the attack of HIV protease. The reaction rate was determined by subjecting the substrate before the reaction and the product after the reaction to HPLC separation and then measuring the relative amount of the product, using the strong absorbance of (p--NO2)-Phe at 280 nm. The amount of reduction in enzyme activity according to the elapsed time were measured and the natural logarithmic values(ln) of the measured amounts were plotted against time to obtain a linear graph and kobs was calculated from the slope of the linear graph.
The inhibition constant was calculated according to the following equation: [formula] wherein: kobs is a rate constant indicating the rate of reduction in enzyme activity according to the elapsed time under the presence of a given concentration of inhibitor,
kina is a rate constant indicating the rate of chemical reaction forming covalent bond between an enzyme and an inhibitor in Michaelis-Menten complex,
KI is an inhibition constant indicating the dissociation rate of Michaelis-Menten complex into an enzyme and an inhibitor, and
[I] means the inhibitor concentration.
The above equation is applicable to an experiment carried out under the condition in which the concentration of inhibitor is far higher than that of enzyme(Steady State Kinetic). […] The inhibition constants KI and kina and second order rate constant kina /KI were obtained by inputting the value of [E]/([E]+[EI]+[EI']) into KINSIM/FITSIM program. FIG. 1 exemplifies a result of the experiment determining the binding ratio of enzymes and inhibitors, which result was obtained by reacting the enzyme and the inhibitor in various concentration ratios for a sufficient time period(at least for 30 minutes), and then plotting the relative activity of the remaining enzyme against [conc. of inhibitor]/[conc. of enzyme].

Setting [2] is: concentration that causes death of cells by 50%, H9 or Sup T1 cells, 37° C, read-out: CT50 (the source's name).

Read-outs that look alike come from different tables or passages of the source.

As for `CC(C)(C)NC(=O)[C@@H]1C[C@@H]2CCCC[C@@H]2CN1C[C@@H](O)[C@H](Cc1ccccc1)NC(=O)[C@H](CC(N)=O)NC(=O)c1ccc2ccccc2n1` [Ro-31-8959, reference compound], half-maximal inhibition with HIV-1 (IC50) required 40 nM. In data set [1] (h9 or sup t1 cells), this molecule yielded a CC50 of over 100000 nM.

On to `CC[C@H](C)[C@H](NC(=O)C[C@@H]1O[C@@H]1[C@H](Cc1ccccc1)NC(=O)[C@H](CC(N)=O)NC(=O)c1ccc2ccccc2n1)C(=O)OC` [compound 2, N-[5-L-[[N-(2-quinolinecarbonyl)-L-asparaginyl]amino]-epoxy-6-phenyl-hexanoyl]-L-isoleucine methyl ester], for which, at HIV-1 protease, the affinity, expressed as Ki, was 18 nM; the kinact was 0.00367 s⁻¹; the kinact/KI is 200000 M⁻¹ s⁻¹. Also, in the data set with HIV-1, the half-inhibitory concentration (IC50) (as a rule, the point on the concentration scale where inhibition reaches its midpoint) amounted to 200 nM. The CC50 in data set [1] (setting [2]) was over 100000 nM.

Take `CC[C@H](C)[C@H](NC(=O)C[C@@H]1O[C@@H]1[C@H](Cc1ccccc1)NC(=O)[C@H](CC(N)=O)NC(=O)COc1cccc2ccccc12)C(=O)OC` [compound 3]: at HIV-1 protease, the affinity corresponds to a Ki of 40 nM, the kinact was 0.002 s⁻¹ and the kinact/KI is 50000 M⁻¹ s⁻¹. Moreover, the concentration for half-maximal inhibition (IC50) in the data set with HIV-1 was 3000 nM. For the same molecule, the CC50 in data set [1] (setting [2]) was over 100000 nM.

On to `CC[C@H](C)[C@H](NC(=O)C[C@@H]1O[C@@H]1[C@H](Cc1ccccc1)NC(=O)[C@H](CC(N)=O)NC(=O)c1ccc2ccccc2n1)C(=O)N[C@H](C(=O)OC)C(C)C` [compound 6], for which, at HIV-1 protease, the affinity, expressed as Ki, was 420 nM; the kinact was 0.00217 s⁻¹; the kinact/KI was 5170 M⁻¹ s⁻¹. The same molecule had an IC50 in the data set with HIV-1 of 5000 nM. Besides, in data set [1] (setting [2]), the CC50 is over 100000 nM.

For `CC[C@H](C)[C@H](NC(=O)C[C@@H]1O[C@@H]1[C@H](Cc1ccccc1)NC(=O)[C@H](CC(N)=O)NC(=O)c1ccc2ccccc2n1)C(=O)NCc1ccccc1` [compound 8], at HIV-1 protease, the affinity, expressed as Ki, was 60 nM; the kinact was 0.002 s⁻¹; the kinact/KI was 33300 M⁻¹ s⁻¹. In the data set with HIV-1, this molecule showed an IC50 of 7000 nM. For the same molecule, the CC50 in data set [1] (setting [2]) is over 100000 nM.

With `CC[C@H](C)[C@H](NC(=O)C[C@@H]1O[C@@H]1[C@H](Cc1ccccc1)NC(=O)[C@H](CC(N)=O)NC(=O)c1ccc2ccccc2n1)C(=O)NCc1ccccn1` [compound 9], at HIV-1 protease, the inhibitory constant (Ki) – broadly, the equilibrium dissociation constant of an inhibitor or competing ligand from its target – was 55 nM; the kinact is 0.00183 s⁻¹; the kinact/KI is 33300 M⁻¹ s⁻¹. In addition, in the data set on HIV-1, it took 8000 nM to reach half-maximal inhibition (IC50). For the same molecule, the CC50 in data set [1] (setting [2]) is over 100000 nM.

As for `COC(=O)C(CCC(N)=O)NC(=O)C[C@@H]1O[C@@H]1[C@H](Cc1ccccc1)NC(=O)[C@H](CC(N)=O)NC(=O)c1ccc2ccccc2n1` (stereo partly shown) [compound 12], on HIV-1 protease, the affinity, expressed as Ki, was 370 nM; the kinact is 0.005 s⁻¹; the kinact/KI is 13500 M⁻¹ s⁻¹. Moreover, the concentration for half-maximal inhibition (IC50) in the data set with HIV-1 was 7000 nM. Moreover, in data set [1] (setting [2]), the CC50 was over 100000 nM.

Take `COC(=O)C(CCC(N)=O)NC(=O)C[C@@H]1O[C@@H]1[C@H](Cc1ccccc1)NC(=O)[C@H](CC(N)=O)NC(=O)OCc1ccccc1` (stereo partly shown) [compound 13]: on HIV-1 protease, affinity was put at a Ki of 520 nM, the kinact was 0.00717 s⁻¹ and the kinact/KI is 13800 M⁻¹ s⁻¹. Further, the IC50 with HIV-1 was 10000 nM. For the same molecule, in data set [1] (setting [2]), the CC50 was over 100000 nM.

Regarding `COC(=O)C(Cc1ccccc1)NC(=O)C(CCC(N)=O)NC(=O)C[C@@H]1O[C@@H]1[C@H](Cc1ccccc1)NC(=O)[C@H](CC(N)=O)NC(=O)c1ccc2ccccc2n1` (stereo partly shown) [compound 14], on HIV-1 protease, the affinity corresponds to a Ki of 350 nM, the kinact was 0.00417 s⁻¹ and the kinact/KI is 11800 M⁻¹ s⁻¹. The IC50 in the data set on HIV-1 came to 9000 nM. Also, in data set [1] (setting [2]), the CC50 is over 100000 nM.

In the case of `CC(C)[C@H](NC(=O)C[C@@H]1O[C@@H]1[C@H](Cc1ccccc1)NC(=O)[C@H](CC(N)=O)NC(=O)c1ccc2ccccc2n1)C(=O)NCc1ccccn1` [compound 19], at HIV-1 protease, the Ki amounted to 81 nM, the kinact is 0.00367 s⁻¹ and the kinact/KI is 45000 M⁻¹ s⁻¹. In the data set on HIV-1, this molecule showed an IC50 of 5000 nM. For the same molecule, the CC50 in data set [1] (setting [2]) was over 100000 nM.

Consider `CC(C)[C@H](NC(=O)N(C)Cc1ccccc1)C(=O)NC[C@@H]1O[C@@H]1[C@H](Cc1ccccc1)NC(=O)[C@@H](NC(=O)N(C)Cc1ccccc1)C(C)C` [compound 81, 4S-1,4-bis[N-[(N'-benzylmethylamino)carbonyl-L-valinyl]amino]-5-phenyl-(2S,3R)-(Z)-epoxypentane], for which the inhibition constant Ki on HIV-1 protease is over 10000 nM.

Turning to `CC(C)[C@H](NC=O)C(=O)NC[C@@H]1O[C@@H]1[C@H](Cc1ccccc1)NC(=O)[C@H](CC(N)=O)NC(=O)c1ccc2ccccc2n1` [compound 88], at HIV-1 protease, the Ki amounted to 850 nM, the kinact is 0.0367 s⁻¹ and the kinact/KI is 43300 M⁻¹ s⁻¹.

`CCC(C)[C@H](NC=O)C(=O)NC[C@@H]1O[C@@H]1[C@H](Cc1ccccc1)NC(=O)[C@H](CC(N)=O)NC(=O)c1ccc2ccccc2n1` (stereo partly shown) [compound 90]: on HIV-1 protease, affinity was put at a Ki of 140 nM, the kinact is 0.00667 s⁻¹ and the kinact/KI was 48300 M⁻¹ s⁻¹.

Regarding `NC(=O)C[C@H](NC(=O)c1ccc2ccccc2n1)C(=O)N[C@@H](Cc1ccccc1)[C@H]1O[C@H]1CNC(=O)[C@@H](NC=O)c1ccccc1` [compound 91], at HIV-1 protease, the inhibitory constant (Ki) stood at 1200 nM, the kinact is 0.005 s⁻¹ and the kinact/KI was 4170 M⁻¹ s⁻¹.

As for `NC(=O)C[C@H](NC(=O)c1ccc2ccccc2n1)C(=O)N[C@@H](Cc1ccccc1)[C@H]1O[C@H]1CNC(=O)[C@H](Cc1ccccc1)NC=O` [compound 92], on HIV-1 protease, the inhibition constant (Ki) amounted to 1400 nM, the kinact is 0.00333 s⁻¹ and the kinact/KI is 2330 M⁻¹ s⁻¹.

As for “Ser-Ile-Ala-Glu-(p-NO2)-Phe-Leu-Val-Arg-Ala-Lys-His [reference compound]”, the Km – broadly, the concentration of substrate that gives half-maximal velocity – on HIV-1 protease (oligopeptide substrate of 11 amino acids, read-out: KM of reaction substrate) is 20 µM.

The record behind these values is patent US5744621A, “Irreversible HIV protease inhibitors, intermediates, compositions and processes for the preparation thereof” (Lucky Limited., priority 1992, dated 1998).
